8 compounds from PubChem BioAssay AID1259407 (Chemical Carcinogenesis Research Information System (CCRIS), 2018) can be followed below.

In this series the test system is CCRIS mutagenicity, Ames/micronucleus/aberration tests. Put plainly: CCRIS mutagenicity studies.
Setting [1] is: Test System: AMES SALMONELLA TYPHIMURIUM, Strain/Indicator: TA98, Metabolic Activation: NONE, Method: PREINCUBATION
Where [2] appears, read: Test System: AMES SALMONELLA TYPHIMURIUM, Strain/Indicator: TA100, Metabolic Activation: NONE, Method: PREINCUBATION
[3] abbreviates: Test System: AMES SALMONELLA TYPHIMURIUM, Strain/Indicator: TA100, Metabolic Activation: NONE, Method: STANDARD PLATE.
[4] abbreviates: Test System: AMES SALMONELLA TYPHIMURIUM, Strain/Indicator: TA1535, Metabolic Activation: NONE, Method: STANDARD PLATE.
Setting [5] is: Test System: AMES SALMONELLA TYPHIMURIUM, Strain/Indicator: TA1538, Metabolic Activation: NONE, Method: STANDARD PLATE.
Setting [6] is: Test System: AMES SALMONELLA TYPHIMURIUM, Strain/Indicator: TA1538, Metabolic Activation: RAT, LIVER, S-9, AROCLOR 1254, Method: STANDARD PLATE.

Active and inactive are the calls of the source. The rule behind the calls is not given here.

For the compound `COC(=O)c1ccc(C)cc1`, the mutagenic call (Test System: AMES SALMONELLA TYPHIMURIUM, Strain/Indicator: TA97, Metabolic Activation: HAMSTER, LIVER, S-9, AROCLOR 1254 (10%), Method: PREINCUBATION) was “inactive; negative”; the mutagenic call (Test System: AMES SALMONELLA TYPHIMURIUM, Strain/Indicator: TA97, Metabolic Activation: HAMSTER, LIVER, S-9, AROCLOR 1254 (30%), Method: PREINCUBATION) was “inactive; negative”; the mutagenic call (Test System: AMES SALMONELLA TYPHIMURIUM, Strain/Indicator: TA97, Metabolic Activation: NONE, Method: PREINCUBATION) is “inactive; negative”; the mutagenic call (Test System: AMES SALMONELLA TYPHIMURIUM, Strain/Indicator: TA97, Metabolic Activation: RAT, LIVER, S-9, AROCLOR 1254 (10%), Method: PREINCUBATION) was “inactive; negative”; the mutagenic call (Test System: AMES SALMONELLA TYPHIMURIUM, Strain/Indicator: TA97, Metabolic Activation: RAT, LIVER, S-9, AROCLOR 1254 (30%), Method: PREINCUBATION) is “inactive; negative”; the mutagenic call (Test System: AMES SALMONELLA TYPHIMURIUM, Strain/Indicator: TA98, Metabolic Activation: HAMSTER, LIVER, S-9, AROCLOR 1254 (10%), Method: PREINCUBATION) is “inactive; negative”. The mutagenic call (Test System: AMES SALMONELLA TYPHIMURIUM, Strain/Indicator: TA98, Metabolic Activation: HAMSTER, LIVER, S-9, AROCLOR 1254 (30%), Method: PREINCUBATION) is “inactive; negative”; the mutagenic call under setting [1] was “inactive; negative”; the mutagenic call (Test System: AMES SALMONELLA TYPHIMURIUM, Strain/Indicator: TA98, Metabolic Activation: RAT, LIVER, S-9, AROCLOR 1254 (10%), Method: PREINCUBATION) is “inactive; negative”; the mutagenic call (Test System: AMES SALMONELLA TYPHIMURIUM, Strain/Indicator: TA98, Metabolic Activation: RAT, LIVER, S-9, AROCLOR 1254 (30%), Method: PREINCUBATION) is “inactive; negative”; the mutagenic call (Test System: AMES SALMONELLA TYPHIMURIUM, Strain/Indicator: TA100, Metabolic Activation: HAMSTER, LIVER, S-9, AROCLOR 1254 (10%), Method: PREINCUBATION) is “inactive; negative”; the mutagenic call (Test System: AMES SALMONELLA TYPHIMURIUM, Strain/Indicator: TA100, Metabolic Activation: HAMSTER, LIVER, S-9, AROCLOR 1254 (30%), Method: PREINCUBATION) is “inactive; negative”. Besides, the mutagenic call is “inactive; negative” under setting [2]; “inactive; negative” (Test System: AMES SALMONELLA TYPHIMURIUM, Strain/Indicator: TA100, Metabolic Activation: RAT, LIVER, S-9, AROCLOR 1254 (10%), Method: PREINCUBATION); “inactive; negative” (Test System: AMES SALMONELLA TYPHIMURIUM, Strain/Indicator: TA100, Metabolic Activation: RAT, LIVER, S-9, AROCLOR 1254 (30%), Method: PREINCUBATION); “inactive; negative” (Test System: AMES SALMONELLA TYPHIMURIUM, Strain/Indicator: TA1535, Metabolic Activation: HAMSTER, LIVER, S-9, AROCLOR 1254 (10%), Method: PREINCUBATION); “inactive; negative” (Test System: AMES SALMONELLA TYPHIMURIUM, Strain/Indicator: TA1535, Metabolic Activation: HAMSTER, LIVER, S-9, AROCLOR 1254 (30%), Method: PREINCUBATION); “inactive; negative” (Test System: AMES SALMONELLA TYPHIMURIUM, Strain/Indicator: TA1535, Metabolic Activation: NONE, Method: PREINCUBATION). Besides, the mutagenic call runs as follows: (Test System: AMES SALMONELLA TYPHIMURIUM, Strain/Indicator: TA1535, Metabolic Activation: RAT, LIVER, S-9, AROCLOR 1254 (10%), Method: PREINCUBATION) “inactive; negative”; (Test System: AMES SALMONELLA TYPHIMURIUM, Strain/Indicator: TA1535, Metabolic Activation: RAT, LIVER, S-9, AROCLOR 1254 (30%), Method: PREINCUBATION) “inactive; negative”; (Test System: AMES SALMONELLA TYPHIMURIUM, Strain/Indicator: TA1537, Metabolic Activation: HAMSTER, LIVER, S-9, AROCLOR 1254 (30%), Method: PREINCUBATION) “inactive; negative”; (Test System: AMES SALMONELLA TYPHIMURIUM, Strain/Indicator: TA1537, Metabolic Activation: NONE, Method: PREINCUBATION) “inactive; negative”; (Test System: AMES SALMONELLA TYPHIMURIUM, Strain/Indicator: TA1537, Metabolic Activation: RAT, LIVER, S-9, AROCLOR 1254 (30%), Method: PREINCUBATION) “inactive; negative”.

For `Nc1c(S(=O)(=O)O)cc(NC2CCCCC2)c2c1C(=O)c1ccccc1C2=O`, the mutagenic call (Test System: AMES SALMONELLA TYPHIMURIUM, Strain/Indicator: TA98, Metabolic Activation: NONE, Method: STANDARD PLATE) is “inactive; negative”; the mutagenic call (Test System: AMES SALMONELLA TYPHIMURIUM, Strain/Indicator: TA98, Metabolic Activation: RAT, LIVER, S-9, AROCLOR 1254, Method: STANDARD PLATE) is “inactive; negative”; the mutagenic call under setting [3] is “inactive; negative”; the mutagenic call (Test System: AMES SALMONELLA TYPHIMURIUM, Strain/Indicator: TA100, Metabolic Activation: RAT, LIVER, S-9, AROCLOR 1254, Method: STANDARD PLATE) was “inactive; negative”; the mutagenic call under setting [4] was “inactive; negative”; the mutagenic call (Test System: AMES SALMONELLA TYPHIMURIUM, Strain/Indicator: TA1535, Metabolic Activation: RAT, LIVER, S-9, AROCLOR 1254, Method: STANDARD PLATE) was “inactive; negative”. Besides, the mutagenic call reads like this: (Test System: AMES SALMONELLA TYPHIMURIUM, Strain/Indicator: TA1537, Metabolic Activation: NONE, Method: STANDARD PLATE) “inactive; negative”; (Test System: AMES SALMONELLA TYPHIMURIUM, Strain/Indicator: TA1537, Metabolic Activation: RAT, LIVER, S-9, AROCLOR 1254, Method: STANDARD PLATE) “inactive; negative”; under setting [5], “inactive; negative”; under setting [6], “inactive; negative”.

Regarding `Nc1ccc(-c2ccc(-c3ccc(N)cc3)cc2)cc1`, the mutagenic call runs as follows: under setting [5], “active; positive”; under setting [6], “active; positive”; (Test System: CHINESE HAMSTER V-79, Strain/Indicator: V-79/6-THIOGUANINE, Metabolic Activation: NONE, Method: SUSPENSION/PLATE) “active; positive”; (Test System: CHINESE HAMSTER V-79, Strain/Indicator: V-79/6-THIOGUANINE, Metabolic Activation: RAT, LIVER, S-9, AROCLOR 1254, Method: SUSPENSION/PLATE) “inactive; negative”; (Test System: CHINESE HAMSTER V-79, Strain/Indicator: V-79/6-THIOGUANINE, Metabolic Activation: RAT, LIVER, S-9, PHENOBARBITAL AND BETA-NAPHTHOFLAVONE, Method: SUSPENSION/PLATE) “inactive; negative”.

As for `CN(Cc1ccc(C#N)cc1)N=O`, the mutagenic call is “active; positive” (Test System: AMES SALMONELLA TYPHIMURIUM, Strain/Indicator: TA1535, Metabolic Activation: HAMSTER, LIVER, S-9, AROCLOR 1254, Method: STANDARD PLATE) and “inactive; negative” under setting [4].

With `O=[N+]([O-])c1ccc(OC[C@H]2CO2)cc1`, under setting [3], the mutagenic call was “active; positive”.

Turning to `O=C(O)[C@@H]1CSCN1`, the mutagenic call reads like this: (Test System: AMES SALMONELLA TYPHIMURIUM, Strain/Indicator: TA102, Metabolic Activation: NONE, Method: STANDARD PLATE) “inactive; negative”; (Test System: AMES SALMONELLA TYPHIMURIUM, Strain/Indicator: TA102, Metabolic Activation: RAT, LIVER, S-9, PHENOBARBITAL, Method: STANDARD PLATE) “inactive; negative”; (Test System: AMES SALMONELLA TYPHIMURIUM, Strain/Indicator: TA104, Metabolic Activation: NONE, Method: STANDARD PLATE) “inactive; negative”; (Test System: AMES SALMONELLA TYPHIMURIUM, Strain/Indicator: TA104, Metabolic Activation: RAT, LIVER, S-9, PHENOBARBITAL, Method: STANDARD PLATE) “inactive; negative”.

In the case of `C[C@]12CCc3c(ccc4cc(O)ccc34)[C@@H]1CCC2=O`, where the note is “Test System: UDS RAT HEPATOCYTES, Strain/Indicator: THY INCORP (18-20 HR), Metabolic Activation: NONE, Method: LIQUID SCINTILLATION COUNTING”, the mutagenic call is “inactive; negative”.

Turning to `CC(=O)Nc1cccc2ncccc12`, the mutagenic call under setting [1] is “inactive; negative”; the mutagenic call (Test System: AMES SALMONELLA TYPHIMURIUM, Strain/Indicator: TA98, Metabolic Activation: RAT, LIVER, S-9, KANECHLOR 500, Method: PREINCUBATION) was “inactive; negative”; the mutagenic call under setting [2] is “inactive; negative”; the mutagenic call (Test System: AMES SALMONELLA TYPHIMURIUM, Strain/Indicator: TA100, Metabolic Activation: RAT, LIVER, S-9, KANECHLOR 500, Method: PREINCUBATION) is “inactive; negative”.
